Measurements as given in PubChem BioAssay (NCI).
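Dose response: 5 concentrations. Exposure: 48 h. Format: 96-well plates. Endpoint: linear interpolation; highest concentration if not reached. GI50: concentration for 50% inhibition of growth. The concentration for full growth arrest is given as TGI.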

Experiments:
Assay in all cases: NCI-60 cell line screen, 48 h
ACHN renal = tested on: ACHN renal
KM12 colon = tested on: KM12 colon
LOX IMVI melanoma = tested on: LOX IMVI melanoma
MALME-3M melanoma = tested on: MALME-3M melanoma
MOLT-4 leukemia = tested on: MOLT-4 leukemia
OVCAR-4 ovarian = tested on: OVCAR-4 ovarian
RPMI-8226 leukemia = tested on: RPMI-8226 leukemia
SF-295 CNS = tested on: SF-295 CNS
SN12C renal = tested on: SN12C renal
UACC-62 melanoma = tested on: UACC-62 melanoma

SMILES	TGI (ACHN renal) [µM]	TGI (KM12 colon) [µM]	TGI (LOX IMVI melanoma) [µM]	TGI (MALME-3M melanoma) [µM]	TGI (MOLT-4 leukemia) [µM]	TGI (OVCAR-4 ovarian) [µM]	TGI (RPMI-8226 leukemia) [µM]	TGI (SF-295 CNS) [µM]	TGI (SN12C renal) [µM]	TGI (UACC-62 melanoma) [µM]	GI50 (ACHN renal) [µM]	GI50 (KM12 colon) [µM]	GI50 (LOX IMVI melanoma) [µM]	GI50 (MALME-3M melanoma) [µM]	GI50 (MOLT-4 leukemia) [µM]	GI50 (OVCAR-4 ovarian) [µM]	GI50 (RPMI-8226 leukemia) [µM]	GI50 (SF-295 CNS) [µM]	GI50 (SN12C renal) [µM]	GI50 (UACC-62 melanoma) [µM]
CCOC(=O)COc1ccccc1/C=C1\CCC(CN(C)C)C1=O (centres undefined)	26.9	13.3	5.43	12	4.61	31.8	3.48	35.5	14.1	17.4	–	–	–	–	–	–	–	–	–	–
COC(=O)[C@@]1(C)CC[C@]2(C)CC[C@]3(C)C4=CC=C5C(=CC(=O)C(O)=C5C)[C@]4(C)[C@@H](O)C[C@@]3(C)[C@@H]2C1	13.4	25.1	21.3	16.2	20.1	19.7	27.7	28.4	20.7	18.9	3.8	13	10.4	4.91	3.18	8.38	5.17	13.2	9.65	8.59
Nc1ccccc1C#C/C=C\C#Cc1cccs1	58.3	25.6	14.7	29.2	84.1	> 50.7	> 35.7	46.1	16.7	19.4	15.9	5.66	3.55	5.38	2.49	16.2	1.25	11.3	4.62	5.96
CC(C)c1cc(-c2n[nH]c(=O)n2-c2ccc3c(ccn3C)c2)c(O)cc1O	> 43.1	0.062	0.0661	< 0.031	–	> 86.1	31.3	0.796	> 52.2	0.224	< 0.0209	0.0221	0.0238	< 0.0167	< 0.0177	13	< 0.0218	< 0.0215	< 0.0222	< 0.0173
COc1cc(C2CC(c3ccc4c(c3)OCO4)=NN2C=O)cc(OC)c1OC (centres undefined)	> 100	> 100	> 100	> 100	> 100	> 100	> 64.6	4.26	> 100	> 100	3.53	1.17	1.27	1.93	4.34	6.86	5.17	0.735	13.6	2.21
OC(c1cc(-c2ccccc2)nc2ccc(Cl)cc12)C1CCCCN1 (centres undefined)	3.21	3.74	2.91	3.88	6.2	8.96	5.49	3.55	10.6	3.68	1.64	1.94	1.55	1.99	2.51	3.24	2.25	1.9	3.14	1.88
CCOC(=O)c1c2c(n3ccccc13)C(=O)c1ccccc1C2=O	> 100	> 100	> 100	> 100	> 100	> 100	> 100	> 100	> 100	> 100	–	–	–	–	–	–	–	–	–	–
CC1=C(C)C(=O)c2c(cc3ccccn23)C1=O	> 100	31.3	19.1	17	> 100	> 100	65.9	31.8	27.1	35.4	–	–	–	–	–	–	–	–	–	–
CC1=Nc2ccccc2S/C1=C(/C)NNC(=O)C(N)=O	> 100	> 100	> 100	> 100	> 100	> 100	> 100	> 100	> 100	> 100	–	–	–	–	–	–	–	–	–	–
Cc1ccc(NC(=O)C(=O)C(C#N)c2ccccc2C)cc1C (centres undefined)	> 100	> 100	> 55.3	> 100	> 100	> 100	> 100	> 100	> 100	> 100	–	–	–	–	–	–	–	–	–	–
COC(=O)[C@H](C[C@H](Cc1ccccc1)NC(=O)c1csc([C@@H](C[C@H](C(C)C)N(C)C(=O)[C@@H](NC(=O)[C@H]2CCCCN2C)C(C)C)OC(C)=O)n1)NC(=O)OCc1ccccc1	> 9	> 9	> 9	2.67	> 9	> 9	2.34	> 9	> 9	> 9	0.00243	< 0.0009	< 0.0009	< 0.0009	< 0.0009	0.0124	< 0.0009	0.00128	< 0.0009	< 0.0009
C#CCOCn1cnc2c(Cl)ncnc21	> 100	> 100	> 100	> 100	> 100	> 100	> 100	> 100	> 100	> 100	–	–	–	–	–	–	–	–	–	–
